Experimental data: ChEMBL document CHEMBL3091409, “Potent P2Y1 urea antagonists bearing various cyclic amine scaffolds” (Bioorg Med Chem Lett, 2013)
pIC50, pKi: −log10 of the molar value. In brackets after ≈: the same amount, converted by molar mass.

Assays:
[1] = tested on: Platelet; test: Inhibition of ADP-induced platelet aggregation in human platelet rich plasma; assay type: functional
[2] = biological target: Voltage-gated inwardly rectifying potassium channel KCNH2 (Homo sapiens, UniProt Q12809); test: Inhibition of human ERG flux
[3] = Aqueous solubility of the compound in amorphous form in […] phosphate buffer at pH 6.5; assay type: physicochemical
[4] = Metabolic stability in rat liver microsomes assessed as compound remaining after 10 mins; assay type: ADME; details: read-out: Stability
[5] = Permeability from apical to basolateral side of human Caco2 cells; assay type: ADME, cell-based; details: Caco-2, read-out: permeability
[6] = Permeability of the compound by PAMPA; assay type: ADME; details: read-out: permeability
[7] = Plasma protein binding in human plasma; assay type: ADME, cell-free; details: read-out: PPB (converted)
[8] = biological target: P2Y purinoceptor 1 (Homo sapiens, UniProt P47900); test: Displacement of [beta-33P]-2MeS-ADP from human P2Y1 receptor transfected in HEK293 cells after 1 hr by scintillation counting method; assay type: cell-based
[9] = Aqueous solubility of the compound in crystalline form in […] phosphate buffer at pH 6.5; assay type: physicochemical
[10] = biological target: 5-hydroxytryptamine receptor 2A (Homo sapiens) (UniProt P28223); test: Inhibition of 5-HT2A receptor (unknown origin); details: concentration not given here
[11] = biological target: D(2) dopamine receptor (Homo sapiens) (UniProt P14416); test: Inhibition of D2 receptor (unknown origin); details: concentration not given here
[12] = biological target: Sodium-dependent noradrenaline transporter (Homo sapiens) (UniProt P23975); test: Inhibition of NET (unknown origin); details: concentration not given here
[13] = Aqueous solubility of the compound in partially crystalline form in […] phosphate buffer at pH 6.5; assay type: physicochemical
[14] = Clearance in rat at 2 mg/kg, iv and 5 mg/kg, po; assay type: ADME, organism-based; details: in vivo
[15] = Volume of distribution at steady state in rat at 2 mg/kg, iv and 5 mg/kg, po; assay type: ADME, organism-based; details: in vivo, read-out: Vdss
[16] = Half life in rat at 2 mg/kg, iv and 5 mg/kg, po; assay type: ADME, organism-based; details: in vivo
[17] = Oral bioavailability in rat at 5 mg/kg; assay type: ADME, organism-based; details: in vivo

Sequence of Voltage-gated inwardly rectifying potassium channel KCNH2 (Q12809 whole entry): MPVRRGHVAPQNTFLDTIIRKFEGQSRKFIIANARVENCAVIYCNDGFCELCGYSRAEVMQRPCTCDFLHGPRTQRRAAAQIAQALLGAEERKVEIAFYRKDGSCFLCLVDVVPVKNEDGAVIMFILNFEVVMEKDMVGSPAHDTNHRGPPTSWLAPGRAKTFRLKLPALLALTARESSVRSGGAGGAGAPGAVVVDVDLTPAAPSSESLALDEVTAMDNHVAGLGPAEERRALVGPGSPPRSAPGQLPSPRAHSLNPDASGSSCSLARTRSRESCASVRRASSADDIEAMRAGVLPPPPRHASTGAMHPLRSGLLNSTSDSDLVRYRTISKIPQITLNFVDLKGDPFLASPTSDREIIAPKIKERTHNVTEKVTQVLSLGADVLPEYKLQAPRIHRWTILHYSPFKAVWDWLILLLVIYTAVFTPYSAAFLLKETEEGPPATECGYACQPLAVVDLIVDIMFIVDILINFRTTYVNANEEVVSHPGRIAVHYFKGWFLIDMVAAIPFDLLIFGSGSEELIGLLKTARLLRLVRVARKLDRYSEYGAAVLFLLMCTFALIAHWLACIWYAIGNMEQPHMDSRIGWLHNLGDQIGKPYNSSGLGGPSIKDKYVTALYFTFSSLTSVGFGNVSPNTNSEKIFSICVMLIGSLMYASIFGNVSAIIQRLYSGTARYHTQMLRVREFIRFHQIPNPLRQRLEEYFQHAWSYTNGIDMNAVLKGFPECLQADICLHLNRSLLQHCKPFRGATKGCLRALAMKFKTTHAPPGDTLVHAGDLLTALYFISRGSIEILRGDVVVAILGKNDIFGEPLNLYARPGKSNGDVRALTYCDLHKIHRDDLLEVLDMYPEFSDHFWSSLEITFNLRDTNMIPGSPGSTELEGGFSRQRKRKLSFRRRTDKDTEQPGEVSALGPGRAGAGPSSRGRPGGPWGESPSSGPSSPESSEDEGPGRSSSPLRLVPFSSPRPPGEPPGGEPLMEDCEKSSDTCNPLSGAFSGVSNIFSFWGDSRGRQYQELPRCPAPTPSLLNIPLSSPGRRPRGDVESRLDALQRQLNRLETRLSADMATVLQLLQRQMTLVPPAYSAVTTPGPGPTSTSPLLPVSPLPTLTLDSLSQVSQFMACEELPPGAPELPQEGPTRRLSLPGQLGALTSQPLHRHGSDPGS
Sequence of P2Y purinoceptor 1 (P47900 whole entry): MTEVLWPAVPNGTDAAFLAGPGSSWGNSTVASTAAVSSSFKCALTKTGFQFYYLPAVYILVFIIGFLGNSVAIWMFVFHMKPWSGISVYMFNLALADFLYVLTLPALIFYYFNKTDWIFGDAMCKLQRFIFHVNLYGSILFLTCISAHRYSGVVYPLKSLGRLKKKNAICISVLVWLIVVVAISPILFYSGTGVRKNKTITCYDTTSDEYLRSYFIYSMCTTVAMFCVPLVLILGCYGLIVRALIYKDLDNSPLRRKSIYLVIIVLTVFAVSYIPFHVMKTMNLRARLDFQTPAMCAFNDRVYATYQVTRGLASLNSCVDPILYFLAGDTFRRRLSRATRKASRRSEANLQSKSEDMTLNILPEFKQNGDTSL
Sequence of D(2) dopamine receptor (Homo sapiens) (P14416 whole entry): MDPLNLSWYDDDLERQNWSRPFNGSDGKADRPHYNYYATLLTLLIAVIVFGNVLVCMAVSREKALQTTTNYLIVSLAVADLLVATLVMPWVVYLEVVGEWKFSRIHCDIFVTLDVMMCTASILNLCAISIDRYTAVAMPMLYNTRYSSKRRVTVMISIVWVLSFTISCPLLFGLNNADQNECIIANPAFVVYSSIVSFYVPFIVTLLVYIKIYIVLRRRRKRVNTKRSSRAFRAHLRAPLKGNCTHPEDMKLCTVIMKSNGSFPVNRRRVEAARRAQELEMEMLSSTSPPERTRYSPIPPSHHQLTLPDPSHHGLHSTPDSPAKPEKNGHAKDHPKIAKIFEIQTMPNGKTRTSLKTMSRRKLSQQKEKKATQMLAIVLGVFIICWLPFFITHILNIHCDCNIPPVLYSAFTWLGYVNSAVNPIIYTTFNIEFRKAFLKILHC
Sequence of Sodium-dependent noradrenaline transporter (Homo sapiens) (P23975 whole entry): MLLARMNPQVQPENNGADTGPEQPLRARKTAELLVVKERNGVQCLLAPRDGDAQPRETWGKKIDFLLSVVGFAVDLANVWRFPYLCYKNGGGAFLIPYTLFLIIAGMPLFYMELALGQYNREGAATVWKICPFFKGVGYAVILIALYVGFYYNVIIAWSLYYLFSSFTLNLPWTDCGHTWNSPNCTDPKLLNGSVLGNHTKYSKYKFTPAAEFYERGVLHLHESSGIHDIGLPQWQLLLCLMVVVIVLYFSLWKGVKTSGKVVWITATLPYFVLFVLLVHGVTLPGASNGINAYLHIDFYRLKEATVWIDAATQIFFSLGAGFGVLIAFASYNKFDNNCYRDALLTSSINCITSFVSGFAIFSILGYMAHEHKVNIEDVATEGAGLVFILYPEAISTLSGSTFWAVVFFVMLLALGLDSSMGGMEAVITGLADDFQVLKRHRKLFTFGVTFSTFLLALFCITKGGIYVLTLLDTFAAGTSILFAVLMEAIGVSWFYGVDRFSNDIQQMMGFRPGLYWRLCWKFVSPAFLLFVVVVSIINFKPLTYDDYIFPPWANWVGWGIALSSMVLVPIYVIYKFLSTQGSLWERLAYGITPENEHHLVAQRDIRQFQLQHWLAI
Sequence of 5-hydroxytryptamine receptor 2A (Homo sapiens) (P28223 whole entry): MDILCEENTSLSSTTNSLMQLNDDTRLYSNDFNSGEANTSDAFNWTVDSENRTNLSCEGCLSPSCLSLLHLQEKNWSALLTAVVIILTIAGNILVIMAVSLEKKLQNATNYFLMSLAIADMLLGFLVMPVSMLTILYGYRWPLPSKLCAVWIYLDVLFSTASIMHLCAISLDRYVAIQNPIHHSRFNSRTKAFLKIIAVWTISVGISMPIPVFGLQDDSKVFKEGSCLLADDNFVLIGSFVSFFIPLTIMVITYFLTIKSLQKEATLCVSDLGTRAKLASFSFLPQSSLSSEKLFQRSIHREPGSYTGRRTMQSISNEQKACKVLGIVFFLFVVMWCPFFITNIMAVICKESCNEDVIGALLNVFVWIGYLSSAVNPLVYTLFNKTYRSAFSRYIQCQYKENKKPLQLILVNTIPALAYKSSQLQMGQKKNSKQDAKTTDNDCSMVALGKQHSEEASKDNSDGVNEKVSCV

| Compound | pIC50 [1] | pKi [8] | further results |
| --- | --- | --- | --- |
| CN1Cc2cccc(Oc3ncccc3NC(=O)Nc3ccc(OC(F)(F)F)cc3)c2C1C(C)(C)C (stereo not given) | 5.92 | 7.24 | pIC50 [2]: 5.14; solubility [3]: 270 µg/mL (≈ 539 µM); remaining at 10 min [4]: 6%; Papp A→B [5]: < 1.5 ×10⁻⁶ cm/s; Papp [6]: 78.4 ×10⁻⁶ cm/s; fraction unbound [7]: 0.003 |
| CCCN1CCc2c(cccc2Oc2ncccc2NC(=O)Nc2ccc(OC(F)(F)F)cc2)C1 |  | 6.21 |  |
| O=C(Nc1ccc(OC(F)(F)F)cc1)Nc1cccnc1Oc1cccc2c1CCN(Cc1cccc(O)c1)C2 |  | 5.66 |  |
| O=C(Nc1ccc(OC(F)(F)F)cc1)Nc1cccnc1Oc1cccc2c1CCNC2 |  | 5.52 |  |
| CC(C)(C)CN1CCc2c(cccc2Oc2ncccc2NC(=O)Nc2ccc(OC(F)(F)F)cc2)C1 | 5.51 | 7.96 | solubility [9]: 3 µg/mL (≈ 5.83 µM); remaining at 10 min [4]: 27% |
| CC(C)(C)CCN1CCc2c(cccc2Oc2ncccc2NC(=O)Nc2ccc(OC(F)(F)F)cc2)C1 |  | 6.72 |  |
| CC(C)N1CCc2c(cccc2Oc2ncccc2NC(=O)Nc2ccc(OC(F)(F)F)cc2)C1 |  | 6.25 |  |
| O=C(Nc1ccc(OC(F)(F)F)cc1)Nc1cccnc1Oc1cccc2c1CCN(Cc1ccccc1O)C2 |  | 6.59 |  |
| O=C(Nc1ccc(OC(F)(F)F)cc1)Nc1cccnc1Oc1cccc2c1CCN(Cc1ccccc1)C2 |  | 7.26 |  |
| CN1Cc2cccc(Oc3ncccc3NC(=O)Nc3ccc(OC(F)(F)F)cc3)c2C1 |  | 5.43 |  |
| O=C(Nc1ccc(OC(F)(F)F)cc1)Nc1cccnc1Oc1ccccc1C1CCN(Cc2ccccc2)CC1 | 4.90 | 7.01 |  |
| CC(C)CN1CCC(c2ccccc2Oc2ncccc2NC(=O)Nc2ccc(OC(F)(F)F)cc2)CC1 | 5.12 | 6.82 | pIC50 [2]: 5.22 |
| CC(C)(C)CN1Cc2cccc(Oc3ncccc3NC(=O)Nc3ccc(OC(F)(F)F)cc3)c2C1 | < 5.00 | 7.54 |  |
| CC(C)CN1CCc2c(cccc2Oc2ncccc2NC(=O)Nc2ccc(OC(F)(F)F)cc2)C1 |  | 7.22 |  |
| CC(C)(C)CN1CCC(c2ccccc2Oc2ncccc2NC(=O)Nc2ccc(OC(F)(F)F)cc2)CC1 | 5.62 | 7.80 | pIC50 [2]: 5.34; inhibition [10]: > 50%; inhibition [11]: > 50%; inhibition [12]: > 50%; solubility [13]: 105 µg/mL (≈ 194 µM); remaining at 10 min [4]: 96%; Papp [6]: 28.6 ×10⁻⁶ cm/s; clearance [14]: 18 mL/min/kg; Vd [15]: 14 L/kg; half-life [16]: 11 h; fraction unbound [7]: 0.001; bioavailability [17]: 89% |
| O=C(Nc1ccc(OC(F)(F)F)cc1)Nc1cccnc1Oc1cccc2c1CCN(Cc1cccnc1)C2 |  | 5.92 |  |
| O=C(Nc1ccc(OC(F)(F)F)cc1)Nc1cccnc1Oc1cccc2c1CCN(CCc1ccccc1)C2 |  | 6.54 |  |
| O=C(Nc1ccc(OC(F)(F)F)cc1)Nc1cccnc1Oc1cccc2c1CCN(Cc1ccccn1)C2 |  | 5.96 |  |
| O=C(Nc1ccc(OC(F)(F)F)cc1)Nc1cccnc1Oc1cccc2c1CCN(Cc1ccncc1)C2 |  | 5.98 |  |
| O=C(Nc1ccc(OC(F)(F)F)cc1)Nc1cccnc1Oc1cccc2c1CCN(Cc1ccc(O)cc1)C2 |  | 5.47 |  |
| CCN1CCc2c(cccc2Oc2ncccc2NC(=O)Nc2ccc(OC(F)(F)F)cc2)C1 |  | 5.77 |  |
| CC(C)CN1Cc2cccc(Oc3ncccc3NC(=O)Nc3ccc(OC(F)(F)F)cc3)c2C1 | < 5.00 | 7.17 |  |
